Laboratory results reported in patent US5972873A, “4-substituted-phenyl-boronic acids as enzyme stabilizers” (Novo Nordisk A/S, priority 1995, dated 1999).
pKi: −log10 of the molar value. One block for each compound: values may come before it.

Experiments:
Savinase [1] = target: T1, Savinase (Lederbergia lenta, UniProt P29600); experiment: Determination of Ki: inhibition of Savinase (SAAPFpNA substrate); type: biochemical; design: purchased Novo Nordisk A/S; settings: 0.1M Tris-HCl pH 8.6, 25° C.
T1 sequence (P29600 1-269): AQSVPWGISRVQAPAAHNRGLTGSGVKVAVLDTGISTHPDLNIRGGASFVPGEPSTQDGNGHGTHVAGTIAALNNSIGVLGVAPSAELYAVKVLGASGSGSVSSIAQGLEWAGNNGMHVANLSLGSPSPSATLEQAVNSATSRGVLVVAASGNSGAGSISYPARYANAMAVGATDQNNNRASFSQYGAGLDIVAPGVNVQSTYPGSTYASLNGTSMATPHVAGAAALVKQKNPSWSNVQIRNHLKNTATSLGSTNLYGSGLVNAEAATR
From the text: b) Determination of Ki : The inhibition constant Ki may be determined by using standard methods, for reference see Keller et al, Biochem. Biophys. Res. Com. 176, 1991, pp.401-405; J. Bieth in Bayer-Symposium "Proteinase Inhibitors", pp. 463-469, Springer-Verlag, 1974 and Lone Kierstein Hansen in "Determination of Specific Activities of Selected Detergent Proteases using Protease Activity, Molecular Weights, Kinetic Parameters and Inhibition Kinetics", PhD-report, Novo Nordisk A/S and University of Copenhagen, 1991.
The inhibition constant Ki for the inhibition of Savinase™ (available from Novo Nordisk A/S) was determined using standard methods under the following conditions: […]
The initial rate of substrate hydrolysis was determined at nine substrate concentrations in the range of 0.01 to 2 mM using a Cobas Fara automated spectrophotometer. The kinetic parameters Vmax and Km were determined using ENZFITTER (a non-linear regression data analysis program).
kcat was calculated from the equation Vmax =kcat X [Eo ]. The concentration of active enzyme [Eo ] was determined by active site titration using tight-binding protein proteinase inhibitors. The inhibition constant Ki was calculated from plots of Km /kcat as a function of the concentration of inhibitor. The inhibitors were assumed to be 100% pure and the molar concentrations were determined using weighing numbers and molecular weights.

Savinase [2] = target: T1, Savinase; experiment: Storage Stability Test in Liquid Detergent (Detergent base, US-type), Example 3; type: biochemical; design: purchased Novo Nordisk A/S; settings: for Improvement Factor (IFI): relative to Boric Acid, US-type detergent, 1% w/w Savinase (14 KNPU/g), stabilizer 5 mmole/kg (boric acid 160 mmole/kg), 0, 3, 7 and 14 days at 30° C.
Experimental: (§1) a) Storage Stability Test in Liquid Detergent: Enzyme(s) and stabilizer are added to a liquid detergent formulation and stored at well defined conditions. The enzyme activity of each enzyme is determined as a function of time, e.g. after 0, 3, 7 and 14 days.
(§2) To calculate the inhibition efficiency from the storage stability date a reaction mechanism is proposed.
(§3) From these reactions three coupled differential equations are derived describing the deactivation of P, L and PI. The reaction rate constants are derived from storage stability data by the use of a parameter estimation method (Gauss-Newton with the Levenberg modification). The storage stability data give the concentration of (P+PI) and L as a function of time.
(§4) Reaction IV is excluded from the system to reduce the number of parameters thereby describing the stability of the inhibited enzyme by only one reaction rate constant (from equation V).
(§5) In all experiments there is a large surplus of inhibitor molecules compared to protease molecules, i.e. a constant concentration of inhibitor (corresponding to the added amount of inhibitor) is a reasonable assumption.
(§6) An improvement factor is thus derived: [formula] IFI measures the inhibition efficiency given by the inhibition constants KI from reaction III.
Phenyl boronic acid derivatives were also tested in storage stability tests in liquid detergents using the method described previously under the following conditions: […]

subtilisin = settings: Keller et al, 1991; cited from earlier work
proteolytic enzymes = settings: background statement; WO 92/19707 for aryl boronic acids; cited from earlier work
Savinase [3] = target: T1, Savinase; experiment: Storage Stability Test in a Commercial Detergent (Omo Micro), Example 4; type: biochemical; design: purchased Novo Nordisk A/S; settings: 1.33 mM stabilizer (boric acid 160 mM), 1% w/w Savinase (8 KNPU/g), 1% w/w Lipolase (100 KLU/g), 0, 7, 15, and 21 days at 40° C.
Experimental: An improvement factor is thus derived: [formula]
The inhibition effectiveness IFI of 4-formyl-phenyl-boronic acid was also found in a commercial detergent Omo Micro.
Omo Micro was bought in a Danish supermarket. The enzymes were inactivated at 90° C. (overnight).
The following dosages in the detergent were used:
4-Formyl-phenyl-boronic acid: 1.33 mM, or
Protease: 1% w/w Savinase (8 KNPU/g), and
Lipase: 1% w/w Lipolase (100 KLU/g).
Storage: 0, 7, 15, and 21 days at 40° C.

Savinase [4] = target: T1, Savinase; settings: US-type detergent; 1% w/w Savinase (14 KNPU/g); 5 mmole/kg (boric acid 160 mmole/kg); 0, 2, 7 and 14 days at 30° C.
Experimental: as §1, §2, §3, §4, §5, §6

Structure (SMILES): OB(O)c1cc(Cl)cc(Cl)c1 [3,5-dichlorophenylboronic acid]
- capacity as subtilisin inhibitor (subtilisin): particularly effective

Structure (SMILES): OB(O)O [Boric acid]
- inhibition of proteolytic enzymes (proteolytic enzymes): reversibly inhibit proteolytic enzymes

Structure (SMILES): O=C(O)c1ccc(B(O)O)cc1 [4-Carboxybenzeneboronic acid]
- IFI (Savinase [4]): 22

Structure (SMILES): CB(O)O [methylboronic acid]
- capacity as subtilisin inhibitor (subtilisin): poorest inhibitor

Other lines, results leading:

- pKi (Savinase [1]): 3.00
- Improvement Factor (IFI) (Savinase [2]): 300
Structure (SMILES): CC(=O)Nc1cccc(B(O)O)c1 [acetamidophenyl boronic acid]

- pKi (Savinase [1]): 3.52
- storage stability properties versus 2-formyl-phenyl-boronic acid (Savinase [2]; calculated on molar basis): at least 25 times better
- storage stability properties versus 3-formyl-phenyl-boronic acid (Savinase [2]; calculated on molar basis): at least four times better
- storage stability properties versus acetamidophenyl boronic acid (Savinase [2]; calculated on molar basis): at least three times better
- Improvement Factor (IFI) (Savinase [2]): 1000
- inhibition effectiveness IFI (Savinase [3]): 2500
Structure (SMILES): O=Cc1ccc(B(O)O)cc1 [4-formyl-phenyl-boronic acid, 4-Formyl-phenyl-boronic acid]

- Improvement Factor (IFI) (Savinase [2]): 36
Structure (SMILES): O=Cc1ccccc1B(O)O [2-formyl-phenyl-boronic acid]

- Improvement Factor (IFI) (Savinase [2]): 230
Structure (SMILES): O=Cc1cccc(B(O)O)c1 [3-formyl-phenyl-boronic acid]
